Reference: patent US10028992B2, “Methods of treating muscular dystrophy” (BOARD OF REGENTS OF THE NEVADA SYSTEM OF HIGHER EDUCATION …, priority 2012, dated 2018)
Read-outs that look alike come from different tables or passages of the source.

Tested on: α7 integrin promoter
Test: muscle cell-based assay: α7βgal+/− myoblasts/myotubes, LacZ reporter, β-galactosidase cleavage of FDG
Design: species or system mouse; Results in α7+/− β-galactosidase assay: scale not given here
Details: for Results in α7+/− β-galactosidase assay: Myoblasts; for AC50: log of AC50, given with negative sign, unit of AC50 not given, read-out: Fit Log AC50 (converted)
Method: An α7 integrin null mouse was produced in which exon 1 of the gene encoding the α7 integrin was replaced by the LacZ reporter. In these mice, all the transcriptional regulatory elements of the α7 integrin promoter were retained, allowing β-galactosidase to report expression of 7 integrin. A primary myoblast cell line (designated α7βgal^+/−) isolated from 10 day old α7^+/− pups were analyzed for the ability of β-galactosidase to report α7 integrin expression. α7βgal^+/− myoblasts were differentiated and subjected to X-gal staining and western analysis (FIGS. 1A and 1B).
The activity of the α7 integrin promoter was measured by β-galactosidase cleavage of the non-fluorescent compound fluorescein di-β-D-galactopyranoside (FDG) to fluorescein. This assay was used to screen compound libraries to identify molecules that up-regulate α7 integrin expression in muscle.
Also evaluated was the effect of various isoforms of laminin and the ligand for α7β1 integrin on integrin expression. Positive hits were subjected to dose-response analysis, western analysis and a myostatin counterscreen (a negative regulator of muscle growth).

[1] = Table 12, fitted activity at zero concentration
[2] = Table 12 Compound data, concentration-response curve fit

O=C(O)c1csc(-c2cccs2)n1 [drawing 362]
Results in a α7+/− β-galactosidase assay, Myotubes, 0.5 uM (Myotubes, compound at 0.5 uM): 0.2703 | Results in a α7+/− β-galactosidase assay, Myotubes, 1 uM (Myotubes, compound at 1 uM): 0.2837 | Results in a α7+/− β-galactosidase assay, Myotubes, 5 uM (Myotubes, compound at 5 uM): 0.2451 | Results in a α7+/− β-galactosidase assay, Myotubes, 10 uM (Myotubes, compound at 10 uM): −0.02819 | Results in a α7+/− β-galactosidase assay, Myotubes, 20 uM (Myotubes, compound at 20 uM): −0.1366 | Results in a α7+/− β-galactosidase assay, Myotubes, 40 uM (Myotubes, compound at 40 uM): −0.1007

C/C(=N\NC(=O)c1cc(C)oc1C)c1ccc2ccccc2c1 [drawing 652]
Results in α7+/− β-galactosidase assay (0.5 uM): −0.1564 | Results in α7+/− β-galactosidase assay (1 uM): −0.09115 | Results in α7+/− β-galactosidase assay (5 uM): 0.2722 | Results in α7+/− β-galactosidase assay (10 uM): −0.1575 | Results in α7+/− β-galactosidase assay (20 uM): −0.3649 | Results in α7+/− β-galactosidase assay (40 uM): −0.6275

C=CCN(CC=C)C(=O)c1ccc(OC2CCN(S(=O)(=O)N(C)C)CC2)cc1 [Compound 64]
AC50 (Mus musculus, Table 12): 5.01 µM | Fit HillSlope (Table 12, curve fit): 2.4729 | Fit Zero Activity [%] [1]: −4.9734% | Fit Curve Class (Table 12, key not given): 2.1 | Score [2]: 45

CCCc1nnc(SCC(=O)NC2CCCC2)n1CCOC [drawing 467]
Results in a α7+/− β-galactosidase assay, Myotubes, 0.5 uM (Myotubes, compound at 0.5 uM): −0.09246 | Results in a α7+/− β-galactosidase assay, Myotubes, 1 uM (Myotubes, compound at 1 uM): 0.01763 | Results in a α7+/− β-galactosidase assay, Myotubes, 5 uM (Myotubes, compound at 5 uM): −0.3088 | Results in a α7+/− β-galactosidase assay, Myotubes, 10 uM (Myotubes, compound at 10 uM): 0.4536 | Results in a α7+/− β-galactosidase assay, Myotubes, 20 uM (Myotubes, compound at 20 uM): −0.2024 | Results in a α7+/− β-galactosidase assay, Myotubes, 40 uM (Myotubes, compound at 40 uM): −0.4694

Oc1nc2ccccc2nc1-c1c[nH]c2ccccc12 [drawing 625]
Results in α7+/− β-galactosidase assay (0.5 uM): −0.1557 | Results in α7+/− β-galactosidase assay (1 uM): −0.2438 | Results in α7+/− β-galactosidase assay (5 uM): −0.1427 | Results in α7+/− β-galactosidase assay (10 uM): −0.1781 | Results in α7+/− β-galactosidase assay (20 uM): −0.49 | Results in α7+/− β-galactosidase assay (40 uM): −0.6715

Cn1cc(CN(CCO)Cc2cccs2)c(-c2ccccc2F)n1 [drawing 315]
Results in a α7+/− β-galactosidase assay, Myotubes, 0.5 uM (Myotubes, compound at 0.5 uM): 0.06985 | Results in a α7+/− β-galactosidase assay, Myotubes, 1 uM (Myotubes, compound at 1 uM): 0.09322 | Results in a α7+/− β-galactosidase assay, Myotubes, 5 uM (Myotubes, compound at 5 uM): 0.1949 | Results in a α7+/− β-galactosidase assay, Myotubes, 10 uM (Myotubes, compound at 10 uM): 0.1433 | Results in a α7+/− β-galactosidase assay, Myotubes, 20 uM (Myotubes, compound at 20 uM): −0.3105 | Results in a α7+/− β-galactosidase assay, Myotubes, 40 uM (Myotubes, compound at 40 uM): −0.2586

COc1ccc2c(c1)/C(=C\c1cccc(/C=C3/C(=O)Nc4ccc(OC)cc43)n1)C(=O)N2 [drawing 443]
Results in a α7+/− β-galactosidase assay, Myotubes, 0.5 uM (Myotubes, compound at 0.5 uM): −0.1407 | Results in a α7+/− β-galactosidase assay, Myotubes, 1 uM (Myotubes, compound at 1 uM): −0.2351 | Results in a α7+/− β-galactosidase assay, Myotubes, 5 uM (Myotubes, compound at 5 uM): −0.5201 | Results in a α7+/− β-galactosidase assay, Myotubes, 10 uM (Myotubes, compound at 10 uM): −0.5078 | Results in a α7+/− β-galactosidase assay, Myotubes, 20 uM (Myotubes, compound at 20 uM): −0.5433 | Results in a α7+/− β-galactosidase assay, Myotubes, 40 uM (Myotubes, compound at 40 uM): −0.6161

CCCCNC(=O)CSc1nnc(Cc2ccc(Cl)c(Cl)c2)c(O)n1 [Compound 34]
AC50 (Mus musculus, Table 12): 1.41 µM | Emax (Mus musculus, read-out: Max Response [%]): 75.4% | Fit HillSlope (Table 12, curve fit): 1.8851 | Fit Zero Activity [%] [1]: 5.9015% | Fit Curve Class (Table 12, key not given): 1.2 | Score [2]: 65

O=Cc1cn(Cc2ccc(F)cc2Cl)c2ccccc12 [Compound 209]
Fit Curve Class: 2.1 | Fit HillSlope: 4.095 | Fit Zero Activity [%]: 12.1779% | Score: 42 | EC50 (Mus musculus, read-out: Fit LogAC50 (converted)): 15.8 µM

COc1cc([N+](=O)[O-])cc(/C=N/NC(=O)C(O)(c2ccccc2)c2ccccc2)c1O
Results in a α7+/− β-galactosidase assay, Myotubes, 0.5 uM: 0.1119 | Results in a α7+/− β-galactosidase assay, Myotubes, 1 uM: −0.01127 | Results in a α7+/− β-galactosidase assay, Myotubes, 5 uM: −0.4224 | Results in a α7+/− β-galactosidase assay, Myotubes, 10 uM: −0.4434 | Results in a α7+/− β-galactosidase assay, Myotubes, 20 uM: −0.2622 | Results in a α7+/− β-galactosidase assay, Myotubes, 40 uM: −0.3132

CS(=O)(=O)Cc1cccc(C(=O)NN(c2ccccc2)c2ccccc2)c1 [Compound 102]
AC50 (Mus musculus, Table 12): 12.6 µM | Fit HillSlope (Table 12, curve fit): 4.5045 | Fit Zero Activity [%] [1]: 10.4042% | Fit Curve Class (Table 12, key not given): 2.1 | Score [2]: 43
